Like-named read-outs stand apart in the source and are kept apart here.
Key:
DosS [1] = target: T1, DosS (Mycobacterium tuberculosis, UniProt P9WGK3); format: binding; conditions: for binding to DosS heme iron (heme-nitrosyl / heme-carbonyl formation): ferrous DosS (DTH treated), UV-visible and EPR spectroscopy
DosT [2] = target: T2, DosT (Mycobacterium tuberculosis, UniProt P9WGK1); format: binding; conditions: for binding to DosT heme iron (nitrosylated / carbonylated heme formation): deoxy DosT (DTH treated), UV-visible and EPR spectroscopy; for binding to DosT heme iron in the presence of O2: oxy DosT (Fe2+-O2)
T2 sequence (P9WGK1 whole entry): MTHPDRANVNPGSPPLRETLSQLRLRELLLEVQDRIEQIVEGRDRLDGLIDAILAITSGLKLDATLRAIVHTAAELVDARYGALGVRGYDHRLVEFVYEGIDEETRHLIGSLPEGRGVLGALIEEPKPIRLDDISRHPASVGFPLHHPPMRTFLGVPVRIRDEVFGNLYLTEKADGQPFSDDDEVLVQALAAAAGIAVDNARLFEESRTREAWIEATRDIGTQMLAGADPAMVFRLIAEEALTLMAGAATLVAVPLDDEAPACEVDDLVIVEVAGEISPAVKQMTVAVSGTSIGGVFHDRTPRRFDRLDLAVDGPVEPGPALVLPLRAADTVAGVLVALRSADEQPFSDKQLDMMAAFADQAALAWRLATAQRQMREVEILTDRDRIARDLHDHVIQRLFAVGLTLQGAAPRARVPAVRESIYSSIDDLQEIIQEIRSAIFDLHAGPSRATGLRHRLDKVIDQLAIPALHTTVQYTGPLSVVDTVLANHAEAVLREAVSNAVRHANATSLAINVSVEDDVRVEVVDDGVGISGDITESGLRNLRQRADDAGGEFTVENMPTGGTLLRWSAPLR

DosS [3] = target: T1, DosS; format: biochemical
Method: (§1) In-vitro phosphorylation assays were performed according to previously described methods (Roberts et al., J. Biol. Chem., 2004, 279:22) and analyzed on 4-20% Tris-HCl gradient PAGE gels, dried and exposed to X-ray film overnight at −80° C. Formation of a heme-nitrosyl/carbonyl complex was first confirmed by absorption spectroscopy before analyzing samples for autokinase activity. As an additional control, air exposed samples were also treated with proline NONOate. The effect of CO on autokinase activity was measured similarly as described for NO, except that protein samples were flushed with 100% CO for 30 seconds. All autokinase reactions were performed inside the glove box.

DosT [4] = target: T2, DosT; format: biochemical
Method: as §1

[5] = DTH reduced DosS (Fe2+) exposed to ligand, relative to met DosS

T1 sequence (P9WGK3 whole entry): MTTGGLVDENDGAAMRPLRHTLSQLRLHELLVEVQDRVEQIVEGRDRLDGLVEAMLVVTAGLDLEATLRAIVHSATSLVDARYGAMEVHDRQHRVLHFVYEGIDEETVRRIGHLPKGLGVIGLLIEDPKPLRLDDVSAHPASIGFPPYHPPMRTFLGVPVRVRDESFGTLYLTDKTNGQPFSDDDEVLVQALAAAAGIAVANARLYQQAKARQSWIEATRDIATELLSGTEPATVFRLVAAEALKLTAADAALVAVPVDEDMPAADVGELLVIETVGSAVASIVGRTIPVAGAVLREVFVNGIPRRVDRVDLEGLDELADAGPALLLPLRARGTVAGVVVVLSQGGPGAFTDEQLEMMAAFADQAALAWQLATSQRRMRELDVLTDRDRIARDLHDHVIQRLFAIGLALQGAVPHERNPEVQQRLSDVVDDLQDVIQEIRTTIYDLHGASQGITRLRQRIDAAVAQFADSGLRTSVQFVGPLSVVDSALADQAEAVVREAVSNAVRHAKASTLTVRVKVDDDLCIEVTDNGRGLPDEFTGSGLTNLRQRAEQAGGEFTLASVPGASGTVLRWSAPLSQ

SMILES | binding to DosS heme iron (heme-nitrosyl / heme-carbonyl formation) (DosS [1]) | binding to DosT heme iron (nitrosylated / carbonylated heme formation) (DosT [2]) | binding to DosT heme iron in the presence of O2 (DosT [2]) | effect on DosS autokinase activity (DosS [3]; [5]) | further results
[C-]#[O+] [CO, carbon monoxide] | generated heme-nitrosyl and heme-carbonyl DosS species | highly characteristic of the formation of nitrosylated and carbonylated heme species | highly indicative of a heme-carbonyl complex | significantly increased autokinase activity as compared to inactive met DosS | effect on DosS autokinase activity (DosS [3]; met DosS (Fe3+) exposed to ligand): found not to generate any further autokinase activity; rank of DosT autokinase activity (DosT [4]; deoxy DosT (DTH reduced) treated with ligand vs untreated): deoxy DosT showed the highest autokinase activity, followed by CO-DosT and finally oxy DosT; effect on DosT autokinase activity (DosT [4]; oxy DosT treated with ligand on the bench): significantly enhanced autokinase activity compared to inactive oxy DosT
[N]=O [NO, nitric oxide] | binds DosS | binds deoxy DosT | but not NO can effectively substitute O2 from oxy DosT | significantly increased autokinase activity to levels comparable to active ferrous DosS autokinase activity | effect on DosT autokinase activity (DosT [4]; ligand bound to DosT, compared with deoxy or oxy DosT): significantly increased autokinase activity as compared to inactive oxy DosT
O=O [O2, oxygen] | – | – | – | – | effect on DosS heme iron oxidation state (DosS [1]): rapidly oxidized by O2 to generate met DosS; state of DosT heme iron after air exposure (DosT [2]): air exposed DosT is in the oxygen bound (oxy) form; effect on DosS autokinase activity (DosS [3]): dramatically decreases its autokinase activity; effect on DosT autokinase activity (DosT [4]): inhibits autokinase activity
O=C([O-])[C@@H]1CCCN1/[N+]([O-])=N/[O-].[Na+].[Na+] [proline NONOate] | – | – | did not generate any detectable nitrosyl-heme species | – | binding to DosS heme iron (nitrosyl-heme EPR signal) (DosS [1]; air exposed (met, Fe3+) DosS): no EPR signal characteristic of a nitrosyl-heme species was generated
